Test results as given in patent publication US11718618B2, “Substituted pyrido[2,1-a]isoquinolines as VMAT2 inhibitors” (priority 2021, dated 2023).
Like-named read-outs stand apart in the source and are kept apart here.

Columns and labels:
[1] = Stability of compounds in human liver microsomes; format: in vitro ADME; conditions: for CLint scaled at 0.5 μM / half-life at 0.5 μM: both sexes, pH 7.4; for CLint scaled at 0.5 μM: liver microsomes, calculated from HLM half-life, read-out: HLM Scaled Intrinsic Clearance; for CLint scaled at 0.5 μM / Predicted Max. Bioavailability (% F) / HLM Predicted Systemic Clearance: human; for half-life at 0.5 μM: 0.5 μM compound, 0.5 mg/mL human liver microsomes, 37° C., maxed at 420 minutes, read-out: HLM Elimination half-life (t1/2, min); for Predicted Max. Bioavailability (% F): predicted from HLM data; for HLM Predicted Systemic Clearance: scaled from HLM half-life (Obach method)
Description: A test compound (0.5 μM) was incubated with pooled mixed gender liver microsomes from humans (0.5 mg/mL total protein) at 37° C. in the presence of an NADPH-generating system containing 50 mM, pH 7.4 potassium phosphate buffer, 3 mM magnesium chloride, 1 mM EDTA, 1 mM NADP, 5 mM glusose-6-phosphate, and 1 Unit/mL glucose-6-phosphate dehydrogenase. All concentrations were relative to the final incubation volume of 125 μL. Incubations were conducted at 37° C. for 0, 5, 10, 20, 40, and 60 minutes in a water bath and terminated by rapid mixing with 150 μL of ice-cold acetonitrile containing internal standard. Precipitated proteins were removed by centrifugation prior to LC-MS/MS analysis. Aliquots of the resulting supernatant fractions were analyzed by LC-MS/MS monitoring for depletion of parent compound. The resultant peak area ratio versus time data was fitted to a non-linear regression using XLfit Scientific Curve Fitting Software (IDBS Ltd., Surrey, UK) and the elimination half-life (t1/2, min) was calculated from the slope. […] Additional values calculated included predicted extraction ratio and predicted maximum bioavailability.

human VMAT2 = human VMAT2 (Homo sapiens (Human), UniProt Q05940); assay: VMAT2 radioligand binding, 3H-dihydrotetrabenazine competition on human platelet homogenate
Description: Examples of techniques for determining the capability of a compound to inhibit VMAT2 are provided below. The procedure was adapted from that described previously (see, e.g., Near, (1986), Mol. Pharmacol. 30: 252-57; Teng, et al., J. Neurochem. 71, 258-65, 1998). Homogenates from human platelets were prepared by homogenization and then washed by centrifugation as described previously (see, e.g., Hoare et al., (2003) Peptides 24:1881-97).
The human VMAT2 Ki values for the compounds listed in Table 15A and Table 15B were determined using the following procedures. Compound dilution series in DMSO were generated from either powder stocks by hand, or from DMSO stocks using serial dilution on a Vantage (Hamilton), or direct dilution using an Echo 655 (Beckman). In a total volume of 0.145 to 0.150 mL in low-binding 96-well plates (Corning #3605), twelve concentrations of test compound were competed against 10 nM ^3H-dihydrotetrabenezine (American Radiolabeled Chemicals) on human platelet homogenate (30 μg membrane protein per well) in VMAT2 binding buffer (Dulbecco's phosphate buffered saline, 1 mM EDTA, pH 7.4). Following incubation at 25° C. for 90 minutes, bound radioligand was collected by rapid filtration onto either GF/B or GF/C glass fiber filters, pretreated with 0.100 polyethylenimine, using either a Unifilter-96 Harvester (PerkinElmer) or Microlab Star (Hamilton). Following harvesting the filter plates were washed with 0.8 mL VMAT2 binding buffer, and bound radioligand was quantified by scintillation counting using a Topcount NXT or Microplate Counter Microbeta (PerkinElmer).

[2] = 10 nM 3H-dihydrotetrabenazine, human platelet homogenate, 25° C., 90 minutes, read-out: VMAT2 Ki

Sequence of human VMAT2 (Q05940 whole entry): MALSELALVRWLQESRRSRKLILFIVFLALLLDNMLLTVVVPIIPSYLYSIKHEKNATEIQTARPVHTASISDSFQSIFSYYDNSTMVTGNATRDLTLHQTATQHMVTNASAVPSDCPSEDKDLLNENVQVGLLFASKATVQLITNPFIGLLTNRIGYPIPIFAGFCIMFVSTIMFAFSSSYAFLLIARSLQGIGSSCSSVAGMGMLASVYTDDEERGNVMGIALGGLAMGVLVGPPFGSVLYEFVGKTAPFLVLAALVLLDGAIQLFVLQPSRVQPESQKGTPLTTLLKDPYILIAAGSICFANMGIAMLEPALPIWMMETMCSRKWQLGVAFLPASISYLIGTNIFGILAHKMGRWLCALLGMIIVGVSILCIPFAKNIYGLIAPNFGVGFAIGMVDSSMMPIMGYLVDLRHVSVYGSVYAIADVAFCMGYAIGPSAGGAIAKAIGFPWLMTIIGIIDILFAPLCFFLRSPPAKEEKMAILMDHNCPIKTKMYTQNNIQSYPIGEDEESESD

| SMILES | CLint scaled at 0.5 μM [1] | half-life at 0.5 μM [1] | Predicted Max. Bioavailability (% F) [1] | HLM Predicted Systemic Clearance [1] | Ki (human VMAT2; [2]) | Ki (human VMAT2) |
| --- | --- | --- | --- | --- | --- | --- |
| COc1cc2c(cc1OCC#N)CCN1C[C@@H](CC(C)(C)C)[C@H](O)C[C@H]21 [Compound 4-24, 2-{[(2R,3R,11bR)-3-(2,2-dimethylpropyl)-2-hydroxy-10-methoxy-1H,2H,3H,4H,6H,7H,11bH-pyrido[2,1-a]isoquinolin-9-yl]oxy}acetonitrile] | 10.7 mL/min/kg | 117 min | 65 % F | 6.97 mL/min/kg | 35 nM | – |
| COc1cc2c(cc1OCC1(O)CCC1)CCN1C[C@@H](CC(C)(C)C)[C@H](O)C[C@H]21 [Compound 4-25, (2R,3R,11bR)-3-(2,2-dimethylpropyl)-9-[(1-hydroxycyclobutyl)methoxy]-10-methoxy-1H,2H,3H,4H,6H,7H,11bH-pyrido[2,1-a]isoquinolin-2-ol] | 11.4 mL/min/kg | 109 min | 64 % F | 7.26 mL/min/kg | 5.5 nM | – |
| COCCOc1cc2c(cc1OC)[C@H]1C[C@@H](O)[C@H](CC(C)(C)C)CN1CC2 [Compound 4-26, (2R,3R,11bR)-3-(2,2-dimethylpropyl)-10-methoxy-9-(2-methoxyethoxy)-1H,2H,3H,4H,6H,7H,11bH-pyrido[2,1-a]isoquinolin-2-ol] | 14.2 mL/min/kg | 88 min | 58 % F | 8.32 mL/min/kg | 14 nM | – |
| COc1cc2c(cc1OCCCF)CCN1C[C@@H](CC(C)(C)C)[C@H](O)C[C@H]21 [Compound 4-28, (2R,3R,11bR)-3-(2,2-dimethylpropyl)-9-(3-fluoropropoxy)-10-methoxy-1H,2H,3H,4H,6H,7H,11bH-pyrido[2,1-a]isoquinolin-2-ol] | 31.8 mL/min/kg | 39 min | 39 % F | 12.28 mL/min/kg | 0.48 nM | – |
| COc1cc2c(cc1OCC1(C#N)CC1)CCN1C[C@@H](CC(C)(C)C)[C@H](O)C[C@H]21 [Compound 4-29, 1-({[(2R,3R,11bR)-3-(2,2-dimethylpropyl)-2-hydroxy-10-methoxy-1H,2H,3H,4H,6H,7H,11bH-pyrido[2,1-a]isoquinolin-9-yl]oxy}methyl)cyclopropane-1-carbonitrile] | ≤ 2.97 mL/min/kg | ≥ 420 min | ≥87 % F | ≤2.59 mL/min/kg | 83 nM | – |
| COc1cc2c(cc1OC1COC1)CCN1C[C@@H](CC(C)(C)C)[C@H](O)C[C@H]21 [Compound 4-30, (2R,3R,11bR)-3-(2,2-dimethylpropyl)-10-methoxy-9-(oxetan-3-yloxy)-1H,2H,3H,4H,6H,7H,11bH-pyrido[2,1-a]isoquinolin-2-ol] | ≤ 2.97 mL/min/kg | ≥ 420 min | ≥87 % F | ≤2.59 mL/min/kg | 12 nM | – |
| COc1cc2c(cc1OC1CCC1)CCN1C[C@@H](CC(C)(C)C)[C@H](O)C[C@H]21 [Compound 4-32, (2R,3R,11bR)-9-cyclobutoxy-3-(2,2-dimethylpropyl)-10-methoxy-1H,2H,3H,4H,6H,7H,11bH-pyrido[2,1-a]isoquinolin-2-ol] | 66.5 mL/min/kg | 19 min | 23 % F | 15.38 mL/min/kg | 0.59 nM | – |
| COc1cc2c(cc1OCc1ncc(C)o1)CCN1C[C@@H](CC(C)(C)C)[C@H](O)C[C@H]21 [Compound 4-36, (2R,3R,11bR)-3-(2,2-dimethylpropyl)-10-methoxy-9-[(5-methyl-1,3-oxazol-2-yl)methoxy]-1H,2H,3H,4H,6H,7H,11bH-pyrido[2,1-a]isoquinolin-2-ol] | 13.4 mL/min/kg | 93 min | 60 % F | 8.02 mL/min/kg | 51 nM | – |
| COc1cc2c(cc1OC(C)C)CCN1C[C@@H](CC(C)(C)C)[C@H](O)C[C@H]21 [Compound 4-38, (2R,3R,11bR)-3-(2,2-dimethylpropyl)-10-methoxy-9-(propan-2-yloxy)-1H,2H,3H,4H,6H,7H,11bH-pyrido[2,1-a]isoquinolin-2-ol] | 21.5 mL/min/kg | 58 min | 48 % F | 10.35 mL/min/kg | 3.7 nM | – |
| [2H]C([2H])([2H])C([2H])([2H])Oc1cc2c(cc1OC)[C@H]1C[C@@H](O)[C@H](CC(C)(C)C)CN1CC2 [Compound 4-40, (2R,3R,11bR)-3-(2,2-dimethylpropyl)-9-(ethoxy-d5)-10-methoxy-1H,2H,3H,4H,6H,7H,11bH-pyrido[2,1-a]isoquinolin-2-ol] | 23.9 mL/min/kg | 52 min | 46 % F | 10.88 mL/min/kg | – | 1.4 nM |
| COc1cc2c(cc1OCCOC1(C#N)CCOCC1)CCN1C[C@@H](CC(C)(C)C)[C@H](O)C[C@H]21 [Compound 4-41, 4-(2-{[(2R,3R,11bR)-3-(2,2-dimethylpropyl)-2-hydroxy-10-methoxy-1H,2H,3H,4H,6H,7H,11bH-pyrido[2,1-a]isoquinolin-9-yl]oxy}ethoxy)oxane-4-carbonitrile] | 45.2 mL/min/kg | 28 min | 31 % F | 13.87 mL/min/kg | 238 nM | – |
| COc1cc2c(cc1OCC1(C#N)CCC1)CCN1C[C@@H](CC(C)(C)C)[C@H](O)C[C@H]21 [Compound 4-42, 1-({[(2R,3R,11bR)-3-(2,2-dimethylpropyl)-2-hydroxy-10-methoxy-1H,2H,3H,4H,6H,7H,11bH-pyrido[2,1-a]isoquinolin-9-yl]oxy}methyl)cyclobutane-1-carbonitrile] | 24.3 mL/min/kg | 51 min | 45 % F | 10.98 mL/min/kg | 35 nM | – |
| COc1cc2c(cc1OCCOC(C#N)C1CC1)CCN1C[C@@H](CC(C)(C)C)[C@H](O)C[C@H]21 (stereo partly drawn) [Compound 4-43, 2-(2-{[(2R,3R,11bR)-3-(2,2-dimethylpropyl)-2-hydroxy-10-methoxy-1H,2H,3H,4H,6H,7H,11bH-pyrido[2,1-a]isoquinolin-9-yl]oxy}ethoxy)-2-cyclopropylacetonitrile] | 68.8 mL/min/kg | 18 min | 23 % F | 15.5 mL/min/kg | 4.8 nM | – |
| COc1cc2c(cc1OCCOC(C)(C)C#N)CCN1C[C@@H](CC(C)(C)C)[C@H](O)C[C@H]21 [Compound 4-44, 2-(2-{[(2R,3R,11bR)-3-(2,2-dimethylpropyl)-2-hydroxy-10-methoxy-1H,2H,3H,4H,6H,7H,11bH-pyrido[2,1-a]isoquinolin-9-yl]oxy}ethoxy)-2-methylpropanenitrile] | 26.9 mL/min/kg | 46 min | 43 % F | 11.47 mL/min/kg | 2.4 nM | – |
